Data on 19 compounds can be found in PubChem BioAssay AID328 (DTP/NCI, 2004).

Where “and” joins values, the source holds several entries; their conditions need not be identical. Equal values may be shown once. Inconclusive results and toxic doses are left out.

The experiment has as its system BDF1 mice, P388 leukemia ip, median survival T/C. Kind of experiment: NCI In Vivo Anticancer Drug Screen. Data for tumor model P388 Leukemia (intraperitoneal) in B6D2F1 (BDF1) mice. The settings on record: endpoint: median survival time, higher = longer survival. In short, it runs like this: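 Vehicle-dosed animals serve as the reference; survival of compound-dosed, tumour-implanted mice is divided by it.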

The mark [1] stands for this setting: dose: 12.5 mg/kg/injection, schedule: Q04DX003 (ip), vehicle: saline with Tween-80.
Where [2] appears, read: dose: 25.0 mg/kg/injection, schedule: Q04DX003 (ip), vehicle: saline with Tween-80.
[3] abbreviates: dose: 50.0 mg/kg/injection, schedule: Q04DX003 (ip), vehicle: saline with Tween-80.
Setting [4] is: dose: 100.0 mg/kg/injection, schedule: Q04DX003 (ip), vehicle: saline with Tween-80.
[5] abbreviates: dose: 200.0 mg/kg/injection, schedule: Q04DX003 (ip), vehicle: saline with Tween-80.
Setting [6] is: dose: 400.0 mg/kg/injection, schedule: Q04DX003 (ip), vehicle: saline with Tween-80.
Where [7] appears, read: dose: 6.0 mg/kg/injection, schedule: Q01DX009 (ip), vehicle: saline with Tween-80.
[8] abbreviates: dose: 50.0 mg/kg/injection, schedule: Q04DX003 (ip), vehicle: Klucel (hydroxypropylcellulose) (HPC).
Where [9] appears, read: dose: 100.0 mg/kg/injection, schedule: Q01DX009 (ip), vehicle: Klucel (hydroxypropylcellulose) (HPC).
[10] abbreviates: dose: 100.0 mg/kg/injection, schedule: Q04DX003 (ip), vehicle: Klucel (hydroxypropylcellulose) (HPC).
Where [11] appears, read: dose: 200.0 mg/kg/injection, schedule: Q01DX009 (ip), vehicle: Klucel (hydroxypropylcellulose) (HPC).
Where [12] appears, read: dose: 200.0 mg/kg/injection, schedule: Q04DX003 (ip), vehicle: Klucel (hydroxypropylcellulose) (HPC).
The mark [13] stands for this setting: dose: 100.0 mg/kg/injection, schedule: Q01DX009 (ip), vehicle: other.
[14] abbreviates: dose: 200.0 mg/kg/injection, schedule: Q01DX009 (ip), vehicle: other.
The mark [15] stands for this setting: dose: 75.0 mg/kg/injection, schedule: Q01DX009 (ip), vehicle: saline.
The mark [16] stands for this setting: dose: 25.0 mg/kg/injection, schedule: Q01DX009 (ip), vehicle: saline with Tween-80.
Setting [17] is: dose: 50.0 mg/kg/injection, schedule: Q01DX009 (ip), vehicle: saline with Tween-80.
[18] abbreviates: dose: 100.0 mg/kg/injection, schedule: Q01DX009 (ip), vehicle: saline with Tween-80.
[19] abbreviates: dose: 200.0 mg/kg/injection, schedule: Q01DX009 (ip), vehicle: saline with Tween-80.
Setting [20] is: dose: 400.0 mg/kg/injection, schedule: Q01DX009 (ip), vehicle: saline with Tween-80.

In the case of `CC1=C(C)Cc2c(c(OC(=O)c3ccccc3)cc(Cl)c2OC(=O)c2ccccc2)C1`, the T/C was 94 % of control under setting [1]; 94 % of control under setting [2]; 92 % of control under setting [3]; 90 % of control under setting [4]; 93 % of control under setting [5]; 94 % of control under setting [6].
`Cc1ccc(NC(=O)c2ccccc2Cl)c(C)c1`: the T/C is 100 % of control under setting [4], 100 % of control under setting [5] and 109 % of control under setting [6].
As for `COC(=O)c1nc(-c2ccc3c(n2)C(=O)C(N)=C(OC)C3=O)c(N)c(-c2ccc(OC)c(OC)c2O)c1C`, the T/C was 250 % of control (dose: 4.0 mg/kg/injection, schedule: Q01DX009 (ip), vehicle: saline with Tween-80); 183 % of control under setting [7]; 162 % of control (dose: 9.0 mg/kg/injection, schedule: Q01DX009 (ip), vehicle: saline with Tween-80).
`ClC(Cl)C(Cl)(Cl)C(Cl)(Cl)Cl`: the T/C was 91 % of control (dose: 50.0 mg/kg/injection, schedule: Q01DX009 (ip), vehicle: Klucel (hydroxypropylcellulose) (HPC)); 104 % of control under setting [8]; 95 % of control under setting [9]; 109 % of control under setting [10]; 100 % of control under setting [11]; 109 % of control under setting [12].
Take `Cc1c(OCc2ccccc2)cccc1[N+](=O)[O-]`: the T/C is, setting by setting: under setting [13], 109 % of control; (dose: 100.0 mg/kg/injection, schedule: Q04DX003 (ip), vehicle: other) 113 % of control; under setting [14], 119 % of control; (dose: 200.0 mg/kg/injection, schedule: Q04DX003 (ip), vehicle: other) 100 % of control; (dose: 400.0 mg/kg/injection, schedule: Q01DX009 (ip), vehicle: other) 109 % of control; (dose: 400.0 mg/kg/injection, schedule: Q04DX003 (ip), vehicle: other) 109 % of control.
With `CS(C)=O`, the T/C was 100 % of control (dose: 200.0 mg/kg/injection, schedule: Q01DX009 (ip), vehicle: saline); 100 % of control (dose: 400.0 mg/kg/injection, schedule: Q01DX009 (ip), vehicle: saline); 100 % of control (dose: 600.0 mg/kg/injection, schedule: Q01DX009 (ip), vehicle: saline); 95 % of control (dose: 800.0 mg/kg/injection, schedule: Q01DX009 (ip), vehicle: saline).
In the case of `CC(CN(C)C)C(=O)/C=C/c1ccccc1` (configuration not stated), the T/C reads like this: (dose: 18.75 mg/kg/injection, schedule: Q01DX009 (ip), vehicle: saline) 100 % of control; (dose: 37.5 mg/kg/injection, schedule: Q01DX009 (ip), vehicle: saline) 109 % of control; under setting [15], 109 % of control.
Consider `IC1CCCOC1[n+]1ccccc1` (configuration not stated), for which the T/C under setting [7] is 104 % of control; the T/C (dose: 12.0 mg/kg/injection, schedule: Q01DX009 (ip), vehicle: saline with Tween-80) was 109 % of control; the T/C under setting [1] is 96 % of control; the T/C under setting [16] was 104 % of control; the T/C under setting [2] is 107 % of control.
Turning to `O=C(CC/[N+]([O-])=C/c1ccccc1)OCc1ccccc1`, the T/C is 92 % of control (dose: 12.5 mg/kg/injection, schedule: Q01DX009 (ip), vehicle: other); 97 % of control (dose: 25.0 mg/kg/injection, schedule: Q01DX009 (ip), vehicle: other); 103 % of control (dose: 50.0 mg/kg/injection, schedule: Q01DX009 (ip), vehicle: other); 97 % of control under setting [13]; 92 % of control under setting [14].
As to `CCOC(=O)C(CCSC(C)=O)SC(C)=O` (configuration not stated), the T/C was 96 % of control (dose: 6.25 mg/kg/injection, schedule: Q01DX009 (ip), vehicle: saline with Tween-80); 122 % of control (dose: 12.5 mg/kg/injection, schedule: Q01DX009 (ip), vehicle: saline with Tween-80); 111 % of control under setting [1]; 114 % of control under setting [16]; 115 % of control under setting [2]; 104 % of control under setting [17]. For the same compound, the T/C under setting [3] was 109 % of control and 111 % of control.
As to `CN(N=O)C(=O)Nc1ccc(C(=O)O)cc1`, the T/C is 159 % of control (dose: 29.0 mg/kg/injection, schedule: Q04DX003 (ip), vehicle: saline with Tween-80); 163 % of control (dose: 45.0 mg/kg/injection, schedule: Q04DX003 (ip), vehicle: saline with Tween-80); 170 % of control (dose: 66.0 mg/kg/injection, schedule: Q04DX003 (ip), vehicle: saline with Tween-80); 250 % of control under setting [4]; 240 % of control (dose: 150.0 mg/kg/injection, schedule: Q04DX003 (ip), vehicle: saline with Tween-80).
With `O=C1c2ccccc2C(=O)N1CCc1ccccn1`, the T/C is 100 % of control under setting [3]; 100 % of control under setting [18]; 95 % of control and 111 % of control under setting [4]; 95 % of control under setting [19]; 100 % of control and 111 % of control under setting [5]; 88 % of control under setting [6].
As for `Cc1ccnc(NC2=CC(=O)C(=O)c3ccccc32)c1`, the T/C reads like this: (dose: 50.0 mg/kg/injection, schedule: Q01DX009 (ip), vehicle: saline) 100 % of control; under setting [15], 118 % of control; (dose: 112.5 mg/kg/injection, schedule: Q01DX009 (ip), vehicle: saline) 118 % of control.
Take `O=C(/C(=C/c1ccccc1)CBr)c1ccccc1`: the T/C (dose: 1.6 mg/kg/injection, schedule: Q01DX009 (ip), vehicle: Klucel (hydroxypropylcellulose) (HPC)) is 109 % of control; the T/C (dose: 3.1 mg/kg/injection, schedule: Q01DX009 (ip), vehicle: Klucel (hydroxypropylcellulose) (HPC)) was 100 % of control; the T/C (dose: 6.25 mg/kg/injection, schedule: Q01DX009 (ip), vehicle: Klucel (hydroxypropylcellulose) (HPC)) is 104 % of control; the T/C (dose: 12.5 mg/kg/injection, schedule: Q01DX009 (ip), vehicle: Klucel (hydroxypropylcellulose) (HPC)) is 86 % of control; the T/C (dose: 12.5 mg/kg/injection, schedule: Q04DX003 (ip), vehicle: Klucel (hydroxypropylcellulose) (HPC)) was 104 % of control; the T/C (dose: 25.0 mg/kg/injection, schedule: Q01DX009 (ip), vehicle: Klucel (hydroxypropylcellulose) (HPC)) is 86 % of control. The T/C runs as follows: (dose: 25.0 mg/kg/injection, schedule: Q04DX003 (ip), vehicle: Klucel (hydroxypropylcellulose) (HPC)) 95 % of control; under setting [8], 95 % of control.
`C=C(C)C(=O)/C(=C/C(=O)O)OC`: the T/C (dose: 12.5 mg/kg/injection, schedule: Q01DX010 (ip), vehicle: saline) is 113 % of control; the T/C (dose: 25.0 mg/kg/injection, schedule: Q01DX010 (ip), vehicle: saline) is 109 % of control; the T/C (dose: 50.0 mg/kg/injection, schedule: Q01DX010 (ip), vehicle: saline) is 118 % of control.
Turning to `Clc1nc(Cl)c(Cl)nc1Cl`, the T/C was 100 % of control under setting [16]; 97 % of control under setting [2]; 97 % of control under setting [17]; 113 % of control under setting [3]; 113 % of control under setting [18]; 108 % of control under setting [4]. The T/C under setting [19] was 113 % of control, the T/C under setting [5] was 97 % of control, the T/C under setting [20] was 106 % of control and the T/C under setting [6] was 106 % of control.
As to `O=C1CCCCc2ccc(O)cc21`, the T/C is, setting by setting: under setting [18], 99 % of control; under setting [19], 89 % of control; under setting [20], 93 % of control.
As to `CN(CCC(=O)c1cccc2ccccc12)Cc1ccccc1`, the T/C reads like this: under setting [9], 115 % of control; under setting [11], 100 % of control; (dose: 400.0 mg/kg/injection, schedule: Q01DX009 (ip), vehicle: Klucel (hydroxypropylcellulose) (HPC)) 105 % of control.
For `CC(Sc1ncnc2nc[nH]c12)c1ccccc1` (configuration not stated), the T/C reads like this: under setting [8], 100 % of control; under setting [10], 100 % of control; under setting [12], 110 % of control.
